Assay results taken from paper PMC3297592, “Metabolism of Phosphatidylinositol 4-Kinase IIIα-Dependent PI4P Is Subverted by HCV and Is Targeted by a 4-Anilino Quinazoline with Antiviral Activity” (PLoS Pathogens, 2012).

What was measured:
Experiment in all cases: ADP-Glo kinase assay
Format in all cases: biochemical
[1] = biological target: T1, PI4KIIIα-CD (catalytic domain of PI4KIIIα) (Homo sapiens, UniProt P42356)
T1 construct: gene PI4KA; catalytic domain from G873 to the natural C-terminus, N-terminal His6 tag (pFastBac HT-B) kept, Sf9 / baculovirus, Ni-Sepharose; primer adds start ATG GGG (MGMMQCVI...); ends ...NDIPY
T1 sequence (P42356 931-2102): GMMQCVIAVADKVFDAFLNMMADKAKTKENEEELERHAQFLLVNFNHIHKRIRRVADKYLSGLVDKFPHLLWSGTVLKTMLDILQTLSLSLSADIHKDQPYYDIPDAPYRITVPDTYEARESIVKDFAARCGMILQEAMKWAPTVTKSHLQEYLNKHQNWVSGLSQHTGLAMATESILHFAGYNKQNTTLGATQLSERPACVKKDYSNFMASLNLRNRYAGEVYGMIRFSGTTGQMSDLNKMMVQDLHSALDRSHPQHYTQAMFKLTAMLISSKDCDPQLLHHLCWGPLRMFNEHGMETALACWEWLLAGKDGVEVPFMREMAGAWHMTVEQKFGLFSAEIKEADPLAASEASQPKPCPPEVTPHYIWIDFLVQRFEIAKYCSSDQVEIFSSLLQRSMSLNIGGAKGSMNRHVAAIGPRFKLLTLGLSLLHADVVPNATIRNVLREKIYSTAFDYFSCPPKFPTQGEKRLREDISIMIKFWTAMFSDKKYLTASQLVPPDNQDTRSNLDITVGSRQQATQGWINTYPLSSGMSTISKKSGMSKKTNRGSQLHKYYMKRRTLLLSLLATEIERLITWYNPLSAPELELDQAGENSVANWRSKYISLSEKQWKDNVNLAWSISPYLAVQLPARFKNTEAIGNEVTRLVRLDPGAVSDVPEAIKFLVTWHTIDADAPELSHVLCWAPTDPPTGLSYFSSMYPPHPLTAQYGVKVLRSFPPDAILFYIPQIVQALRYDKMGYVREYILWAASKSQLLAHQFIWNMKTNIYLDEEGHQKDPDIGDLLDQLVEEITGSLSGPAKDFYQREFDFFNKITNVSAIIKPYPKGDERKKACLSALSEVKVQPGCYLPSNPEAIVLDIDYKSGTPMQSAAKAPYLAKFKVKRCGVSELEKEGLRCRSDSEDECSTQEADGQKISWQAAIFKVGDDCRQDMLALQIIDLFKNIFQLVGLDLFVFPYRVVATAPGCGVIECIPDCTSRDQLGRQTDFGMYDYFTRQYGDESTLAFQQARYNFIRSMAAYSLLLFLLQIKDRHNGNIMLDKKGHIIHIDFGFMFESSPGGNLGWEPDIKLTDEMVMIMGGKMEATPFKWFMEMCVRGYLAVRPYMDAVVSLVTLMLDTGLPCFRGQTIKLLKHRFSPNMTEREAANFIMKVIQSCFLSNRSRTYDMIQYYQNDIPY

PI3Kβ (p110β/p85α) = biological target: T2, PI3Kβ (p110β/p85α) (Homo sapiens, UniProt P42338)
T2 construct: gene PIK3CB; commercial purified p110β/p85α heterodimer (Millipore); with Phosphatidylinositol 3-kinase regulatory subunit alpha
T2 sequence (P42338 whole entry): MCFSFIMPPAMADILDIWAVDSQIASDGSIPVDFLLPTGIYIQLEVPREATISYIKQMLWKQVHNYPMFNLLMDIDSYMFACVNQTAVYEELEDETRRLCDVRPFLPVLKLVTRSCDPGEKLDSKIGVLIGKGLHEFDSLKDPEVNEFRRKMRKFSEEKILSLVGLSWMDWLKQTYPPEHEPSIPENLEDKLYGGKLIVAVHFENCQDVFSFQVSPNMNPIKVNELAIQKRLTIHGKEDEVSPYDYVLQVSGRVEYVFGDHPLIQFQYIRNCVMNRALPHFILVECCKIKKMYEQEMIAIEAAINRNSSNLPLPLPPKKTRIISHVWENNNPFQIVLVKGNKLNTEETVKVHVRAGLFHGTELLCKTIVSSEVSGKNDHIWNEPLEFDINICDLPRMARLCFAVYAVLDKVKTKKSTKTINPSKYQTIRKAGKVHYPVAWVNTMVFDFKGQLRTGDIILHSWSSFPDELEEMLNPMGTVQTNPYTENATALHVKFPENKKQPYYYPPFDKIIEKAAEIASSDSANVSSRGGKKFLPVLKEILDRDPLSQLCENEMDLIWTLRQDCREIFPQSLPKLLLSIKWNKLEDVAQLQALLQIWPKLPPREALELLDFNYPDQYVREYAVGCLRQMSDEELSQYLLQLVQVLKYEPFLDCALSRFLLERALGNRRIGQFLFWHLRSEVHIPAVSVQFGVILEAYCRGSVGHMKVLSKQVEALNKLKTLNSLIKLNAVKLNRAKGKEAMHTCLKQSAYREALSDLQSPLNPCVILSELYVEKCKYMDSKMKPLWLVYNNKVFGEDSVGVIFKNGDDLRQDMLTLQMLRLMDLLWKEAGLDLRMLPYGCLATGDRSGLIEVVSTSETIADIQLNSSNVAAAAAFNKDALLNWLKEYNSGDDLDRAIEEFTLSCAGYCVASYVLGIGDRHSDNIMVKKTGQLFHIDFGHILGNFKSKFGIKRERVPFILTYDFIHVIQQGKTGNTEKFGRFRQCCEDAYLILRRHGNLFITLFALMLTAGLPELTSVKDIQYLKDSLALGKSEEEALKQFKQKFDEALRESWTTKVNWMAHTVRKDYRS
T2 sequence (P27986 2-724 partner): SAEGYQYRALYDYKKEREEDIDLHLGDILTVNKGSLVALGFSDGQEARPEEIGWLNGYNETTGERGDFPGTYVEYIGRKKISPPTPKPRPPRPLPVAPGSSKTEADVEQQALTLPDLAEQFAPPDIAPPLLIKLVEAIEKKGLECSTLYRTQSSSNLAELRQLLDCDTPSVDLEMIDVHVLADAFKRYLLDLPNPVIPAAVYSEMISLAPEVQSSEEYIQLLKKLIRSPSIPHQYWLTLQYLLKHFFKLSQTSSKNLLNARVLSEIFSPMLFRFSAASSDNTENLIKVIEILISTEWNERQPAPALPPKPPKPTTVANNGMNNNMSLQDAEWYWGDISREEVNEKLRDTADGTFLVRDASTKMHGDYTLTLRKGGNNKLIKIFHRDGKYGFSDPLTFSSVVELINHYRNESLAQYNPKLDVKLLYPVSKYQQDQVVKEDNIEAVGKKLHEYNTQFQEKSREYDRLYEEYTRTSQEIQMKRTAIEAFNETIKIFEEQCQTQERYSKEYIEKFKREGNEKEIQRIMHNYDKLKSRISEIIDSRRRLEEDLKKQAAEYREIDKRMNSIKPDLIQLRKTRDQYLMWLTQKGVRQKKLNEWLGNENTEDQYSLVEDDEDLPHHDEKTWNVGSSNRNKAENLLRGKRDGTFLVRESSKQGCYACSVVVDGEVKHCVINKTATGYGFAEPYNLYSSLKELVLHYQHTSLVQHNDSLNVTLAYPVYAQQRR

PI3Kα (p110α/p85α) = biological target: T3, PI3Kα (p110α/p85α) (Homo sapiens, UniProt P42336)
T3 construct: gene PIK3CA; commercial purified p110α/p85α heterodimer (Millipore); with Phosphatidylinositol 3-kinase regulatory subunit alpha
T3 sequence (P42336 whole entry): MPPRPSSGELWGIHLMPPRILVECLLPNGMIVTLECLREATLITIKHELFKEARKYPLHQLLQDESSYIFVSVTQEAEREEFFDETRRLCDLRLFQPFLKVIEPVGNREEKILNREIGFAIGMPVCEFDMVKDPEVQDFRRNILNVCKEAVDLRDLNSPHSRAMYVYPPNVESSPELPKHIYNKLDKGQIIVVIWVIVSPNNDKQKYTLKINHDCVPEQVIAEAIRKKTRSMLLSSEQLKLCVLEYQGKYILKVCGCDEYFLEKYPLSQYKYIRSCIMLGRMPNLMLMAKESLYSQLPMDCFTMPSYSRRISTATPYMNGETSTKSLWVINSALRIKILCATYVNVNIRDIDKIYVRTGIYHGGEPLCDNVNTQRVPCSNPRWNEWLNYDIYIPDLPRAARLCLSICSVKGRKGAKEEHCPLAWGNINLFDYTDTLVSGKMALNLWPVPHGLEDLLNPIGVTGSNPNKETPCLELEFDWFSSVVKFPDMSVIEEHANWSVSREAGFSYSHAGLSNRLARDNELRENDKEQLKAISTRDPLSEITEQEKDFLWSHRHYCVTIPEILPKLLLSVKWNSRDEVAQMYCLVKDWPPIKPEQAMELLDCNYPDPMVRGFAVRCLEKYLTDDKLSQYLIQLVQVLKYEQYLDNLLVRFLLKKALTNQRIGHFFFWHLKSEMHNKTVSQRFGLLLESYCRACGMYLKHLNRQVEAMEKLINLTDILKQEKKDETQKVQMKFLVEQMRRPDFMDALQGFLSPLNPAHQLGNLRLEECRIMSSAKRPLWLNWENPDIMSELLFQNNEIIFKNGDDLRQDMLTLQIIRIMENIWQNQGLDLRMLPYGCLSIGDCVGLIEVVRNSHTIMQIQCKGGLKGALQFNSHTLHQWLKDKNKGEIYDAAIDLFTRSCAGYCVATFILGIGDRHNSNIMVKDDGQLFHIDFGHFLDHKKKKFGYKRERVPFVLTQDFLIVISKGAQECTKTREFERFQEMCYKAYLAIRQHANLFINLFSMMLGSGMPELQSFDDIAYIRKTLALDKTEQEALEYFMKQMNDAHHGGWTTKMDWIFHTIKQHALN
T3 sequence (P27986 2-724 partner): as the sequence (P27986 2-724 partner) above

**Q.** How did the IC50 [1] turn out when OCc1ccc(-c2ccc3ncnc(Nc4ccc(N5CCOCC5)cc4)c3c2)o1 [AL-9] was run?
**A.** 570 nM

**Q.** What about the inhibition at 10 µM (PI3Kβ (p110β/p85α)) of the same compound?
**A.** 40%

**Q.** And the IC50 (PI3Kα (p110α/p85α))?
**A.** 1100 nM
